# Patent US10604508B2, “2,3-dihydro-isoindole-1-one derivative as BTK kinase suppressant, and pharmaceutical composition including same” (CrystalGenomics, Inc., priority 2012, dated 2020)
# Experiments:
# Assay type in all cases: cell-based
# [1] = test system: SR; experiment: MTS anti-proliferation assay, SR; details: human lymphoma cell line, 48 hours
# Description: (§1) MTS assay was performed to evaluate the anti-proliferative activities of the inventive compounds via inhibition on extracellular signal-regulated kinase (Barltrop, J. A. et al., (1991) 5-(3-carboxymethoxyphenyl)-2-(4,5-dimethylthiazoly)-3-(4-sulfophenyl) tetrazolium, inner salt (MTS) and related analog of 3-(4,5-dimethylthiazolyl)-2,5,-diphenyltetrazolium bromide (MTT) reducing to purple water soluble formazans as cell-viability indicators. Bioorg. Med Chem. Lett. 1, 611-4; Cory, A. H. et al., (1991) Use of an aqueous soluble tertrazolium/formazan assay for cell growth assays in culture. Cancer Comm. 3, 207-12).
# (§2) Human lymphoma cell lines Jeko-1 (ATCC), Mino (ATCC), H9 (Korean Cell Line Bank) and SR (ATCC), and human leukemia cell lines MV4-11 (ATCC), Molm-13 (DSMZ) and Ku812 (ATCC) were used for the test according to the procedure shown below.
# (§3) Each of Jeko-1, Mino, H9, SR, MV4-11, Molm-13 and Ku812 cells were transferred into 96-well plates containing RPMI1640 medium (GIBCO, Invitrogen) supplemented with 10% FBS at a density of 10,000 cells/well, and then incubated for 24 hours under conditions of 37° C. and 5% CO2. The wells were treated with each of 0.2, 1, 5, 25 and 100 μM, of the test compounds. The well was treated with DMSO in an amount of 0.08 wt %, which is the same amount as in the test compounds, which was used as a control. The resulting cells were incubated for 48 hours.
# (§4) MTS assays are commercially available and include the Promega CellTiter 96® Aqueous Non-Radioactive Cell Proliferation Assay. MTS assays were performed in order to evaluate cell viability of the test compounds. 20 μL of a mixed solution of 3-(4,5-dimethylthiazol-2-yl)-5-(3-carboxymethoxyphenyl)-2-(4-sulfophenyl)-2H-tetrazolium, inner salt (“MTS”) and phenazine methosulfate (PMS) was added to each well, and then incubated for 2 hours at 37° C. Then absorbance of the samples was read at 490 nm. The anti-proliferation activity level was calculated based on absorbance of the test compounds against that of the untreated control group. The EC50 (μM) values, in which test compounds reduce the growth of cancer cells by 50% were calculated.
# [2] = test system: Jeko-1; experiment: MTS anti-proliferation assay, Jeko-1; details: human lymphoma cell line, 48 hours
# Description: as §1, §2, §3, §4
# [3] = test system: RBL-2H3 cell line; experiment: Histamine Release Assay; details: Rattus norvegicus; RBL-2H3 cells, 500 ng/mL monoclonal anti-DNP, 24 hours
# Description: Histamine release assays were performed with reference to the method disclosed in the article, FEBS Lett. 2002 Sep. 11; 527 (1-3):274-8. Silencing of Bruton's tyrosine kinase (Btk) using short interfering RNA duplexes (siRNA). Heinonen J E, Smith C I, Nore B F, and the amount of histamine was measured by an enzyme immunoassay.
# The RBL-2H3 cell line, purchased from KCLB (Korean Cell Line Bank), was grown in a DMEM medium supplemented with 10% (v/v) FBS at 37° C. in a 5% CO2 incubator for 72 hours. The cells were transferred into 96-well plates at a density of 10,000 cells/well, and cultured at 37° C. in the 5% CO2 incubator for 24 hours.
# The cells were treated with 500 ng/mL of monoclonal anti-DNP (sigma) and each of 0.001, 0.01, 0.1, 1.0 and 10 μM of the test compound in 100% (v/v) dimethyl sulfoxide (DMSO). The cells were treated only with 100% (v/v) DMSO, which was used as a control. The treated samples were cultured at 37° C. in the 5% CO2 incubator for 24 hours. Then, histamine release was measured according to manufacturer's instructions (EIA histamine kit, immunotech). Each well was treated with 50 μL of a histamine release buffer, and allowed to react for 30 minutes at 37° C. Upon completion of the reaction, 100 μL of a sample from each well was transferred to a new plate, and then was thoroughly mixed with 25 μL of an acetylation buffer and 25 μL of an acetylation reagent. 50 μL of the acetylation sample thus prepared was transferred to a plate coated with an antibody, mixed with 200 μL of histamine alkaline phosphatase conjugate, and then allowed to react for 18 hours at 4° C. Once the reaction is completed, the sample from the plate is removed, and then 200 μL of a wash buffer was added to wash three times. 200 μL of a substrate was added thereto, and the mixture was allowed to react at room temperature for 30 minutes. The reaction was terminated by adding 50 μL of a stop solution, and absorbance of the samples was read at 406 nm using Benchmark Plus (Biorad). The histamine release level was calculated based on absorbance of the test group against that of the control group. The EC50 (μM) values, in which test compounds reduce the histamine release by 50%, were determined by using Microsoft Excel graphic program.
# [4] = test system: H9; experiment: MTS anti-proliferation assay, H9; details: human lymphoma cell line, 48 hours
# Description: as §1, §2, §3, §4
# [5] = test system: Mino; experiment: MTS anti-proliferation assay, Mino; details: human lymphoma cell line, 48 hours
# Description: as §1
# (§5) Human lymphoma cell lines Jeko-1 (ATCC), Mino (ATCC), H9 (Korean Cell Line Bank) and SR (ATCC), and human leukemia cell lines MV4-11 (ATCC), Molm-13 (DSMZ) and Ku812 (ATCC) were used for the test according to the procedure shown below. […]
# (§6) MTS assays are commercially available and include the Promega CellTiter 96® Aqueous Non-Radioactive Cell Proliferation Assay. […] Then absorbance of the samples was read at 490 nm. The anti-proliferation activity level was calculated based on absorbance of the test compounds against that of the untreated control group. […]
# [6] = test system: Ku812; experiment: MTS anti-proliferation assay, Ku812; details: human leukemia cell line, 48 hours
# Description: as §1, §5, §6
# [7] = test system: Molm-13; experiment: MTS anti-proliferation assay, Molm-13; details: human leukemia cell line, 48 hours
# Description: as §1, §5, §6
# [8] = test system: MV4-11; experiment: MTS anti-proliferation assay, MV4-11; details: human leukemia cell line, 48 hours
# Description: as §1, §5, §6
EC50 [3] [nM],EC50 [7] [nM],EC50 [8] [nM],SMILES,EC50 [1] [nM],EC50 [2] [nM],EC50 [4] [nM],EC50 [5] [nM],EC50 [6] [nM]
300,,,"Cc1cnc(-c2ccc(-c3ccc(NC(=O)Nc4c(F)ccc(F)c4F)cc3F)c3c2C(=O)NC3)[nH]1 [Compound 12, 1-{3-fluoro-4-[7-(5-methyl-1H-imidazol-2-yl)-1-oxo-2,3-dihydro-1H-isoindol-4-yl]-phenyl}-3-(2,3,6-trifluoro-phenyl)-urea]",20,150,40,,
40,12,4,"Cc1cnc(-c2ccc(-c3ccc(NC(=O)Nc4c(F)ccc(Cl)c4F)cc3F)c3c2C(=O)NC3)[nH]1 [Compound 17, 1-(3-chloro-2,6-difluorophenyl)-3-(3-fluoro-4-(7-(5-methyl-1H-imidazol-2-yl)-1-oxoisoindolin-4-yl)phenyl)urea]",25,30,20,18,190
300,,,"Cc1cnc(-c2ccc(-c3ccc(NC(=O)Nc4c(F)cc(Cl)cc4F)cc3F)c3c2C(=O)NC3)[nH]1 [Compound 19, 1-(4-chloro-2,6-difluoro-phenyl)-3-{3-fluoro-4-[7-(5-methyl-1H-imidazol-2-yl)-1-oxo-2,3-dihydro-1H-isoindol-4-yl]-phenyl}-urea]",20,30,40,,
300,,,"Cc1cnc(-c2ccc(-c3ccc(NC(=O)Nc4c(F)ccc(F)c4Cl)cc3F)c3c2C(=O)NC3)[nH]1 [Compound 18, 1-(2-chloro-3,6-difluorophenyl)-3-(3-fluoro-4-(7-(5-methyl-1H-imidazol-2-yl)-1-oxoisoindolin-4-yl)phenyl)urea]",20,30,20,,
350,,,"Cc1cnc(-c2ccc(-c3ccc(NC(=O)Nc4c(F)c(F)c(F)c(F)c4F)cc3F)c3c2C(=O)NC3)[nH]1 [Compound 9, 1-{3-fluoro-4-[7-(5-methyl-1H-imidazol-2-yl)-1-oxo-2,3-dihydro-1H-isoindol-4-yl]-phenyl}-3-pentafluorophenyl-urea]",18,30,6,,
300,,,"Cc1cnc(-c2ccc(-c3ccc(NC(=O)Nc4c(F)c(F)cc(F)c4F)cc3F)c3c2C(=O)NC3)[nH]1 [Compound 20, 1-{3-fluoro-4-[7-(5-methyl-1H-imidazol-2-yl)-1-oxo-2,3-dihydro-1H-isoindol-4-yl]-phenyl}-3-(2,3,5,6-tetrafluoro-phenyl)-urea]",17,30,10,,
200,,,"Cc1cnc(-c2ccc(-c3ccc(NC(=O)Nc4ccc(F)c(F)c4)cc3F)c3c2C(=O)NC3)[nH]1 [Compound 14, 1-(3,4-difluoro-phenyl)-3-{3-fluoro-4-[7-(5-methyl-1H-imidazol-2-yl)-1-oxo-2,3-dihydro-1H-isoindol-4-yl]-phenyl}-urea]",18,30,20,,
450,,,"Cc1cnc(-c2ccc(-c3ccc(NC(=O)Nc4c(F)cccc4F)cc3F)c3c2C(=O)NC3)[nH]1 [Compound 3, 1-(2,6-difluoro-phenyl)-3-{3-fluoro-4-[7-(5-methyl-1H-imidazol-2-yl)-1-oxo-2,3-dihydro-1H-isoindol-4-yl]-phenyl}-urea]",100,100,30,,
250,,,"Cc1cnc(-c2ccc(-c3ccc(NC(=O)Nc4c(F)cccc4Cl)cc3F)c3c2C(=O)NC3)[nH]1 [Compound 4, 1-(2-chloro-6-fluoro-phenyl)-3-{3-fluoro-4-[7-(5-methyl-1H-imidazol-2-yl)-1-oxo-2,3-dihydro-1H-isoindol-4-yl]-phenyl}-urea]",30,100,30,,
220,,,"Cc1cnc(-c2ccc(-c3ccc(NC(=O)Nc4ccc(C#N)c(F)c4)cc3F)c3c2C(=O)NC3)[nH]1 [Compound 15, 1-(4-cyano-3-fluorophenyl)-3-(3-fluoro-4-(7-(5-methyl-1H-imidazol-2-yl)-1-oxoisoindolin-4-yl)phenyl)urea]",150,100,190,,
220,3,2,"Cc1cnc(-c2ccc(-c3ccc(NC(=O)Nc4c(F)cc(F)cc4F)cc3F)c3c2C(=O)NC3)[nH]1 [Compound 7, 1-{3-fluoro-4-[7-(5-methyl-1H-imidazol-2-yl)-1-oxo-2,3-dihydro-1H-isoindol-4-yl]-phenyl}-3-(2,4,6-trifluoro-phenyl)-urea]",15,30,7,18,600
